Results as given in patent US11312727B1, “Macrocyclic flu endonuclease inhibitors” (Janssen BioPharma, Inc., priority 2018, dated 2022).
pEC50: −log10 of the molar value.

Assays:
in vitro = conditions: human, CC50, uninfected A549 cells, CellTiter-Glo
[1] = tested on: Influenza strain A549 A/WSN/33 (H1N1); assay: microbe, parasite or virus in culture; assay type: cell-based; conditions: Influenza A virus, A549, 20 h, A549 cells, influenza A/WSN/33 (H1N1), 20 hours incubation; read-out: A549_A(H1N1) EC50

Row | Compound | CC50 (in vitro) | pEC50 [1]
1 | O=C1c2c(O)c(=O)ccn2N2CN1C[C@@H]1C[C@@H]1COc1cccc3c1[C@H]2c1ccccc1SC3 (single isomer, unassigned) [Compound 118AB, (1a*S,11b*S,20a*R)-17-hydroxy-1a,2,6,11b,17,17a,20,20a-octahydro-1H-5,4-(epiprop[1]en[1]yl[3]ylidene)-12,19-methanobenzo[6,7]thiepino[4,5-c]cyclopropa[k]pyrido[1,2-f][1]oxa[5,6,9]triazacyclotridecine-16,18-dione] | > 200 nM | 8.00
2 | CSc1ccccc1[C@H]1c2cccc(F)c2OC/C=C\CN2CN1n1ccc(=O)c(O)c1C2=O (single isomer, unassigned) [Compound 119A, (18*R,*Z)-4-fluoro-12-hydroxy-18-(2-(methylthio)phenyl)-6,9-dihydro-18H-10,17-methanobenzo[b]pyrido[1,2-f][1]oxa[5,6,9]triazacyclotridecine-11,13-dione] | > 200 nM | < 7.00
3 | CSc1ccccc1[C@@H]1c2cccc(F)c2OC/C=C\CN2CN1n1ccc(=O)c(O)c1C2=O (single isomer, unassigned) [Compound 119B, (18*S,*Z)-4-fluoro-12-hydroxy-18-(2-(methylthio)phenyl)-6,9-dihydro-18H-10,17-methanobenzo[b]pyrido[1,2-f][1]oxa[5,6,9]triazacyclotridecine-11,13-dione] | > 200 nM | 7.66
4 | CC[C@@H]1/C=C/COc2c(ccc(Cl)c2Cl)C(c2ccccc2)N2CN1C(=O)c1c(O)c(=O)ccn12 (single isomer, unassigned) [Compound 121AA, (9*R,18*R,*E)-3,4-dichloro-9-ethyl-12-hydroxy-18-phenyl-6,9-dihydro-18H-10,17-methanobenzo[b]pyrido[1,2-f][1]oxa[5,6,9]triazacyclotridecine-11,13-dione] | > 200 nM | 8.46
5 | CC[C@H]1/C=C/COc2c(ccc(Cl)c2Cl)[C@@H](c2ccccc2)N2CN1C(=O)c1c(O)c(=O)ccn12 (single isomer, unassigned) [Compound 121AB, (9*S,18*R,*E)-3,4-dichloro-9-ethyl-12-hydroxy-18-phenyl-6,9-dihydro-18H-10,17-methanobenzo[b]pyrido[1,2-f][1]oxa[5,6,9]triazacyclotridecine-11,13-dione] | > 200 nM | < 7.00
6 | CC[C@@H]1/C=C/COc2c(ccc(Cl)c2Cl)[C@H](c2ccccc2)N2CN1C(=O)c1c(O)c(=O)ccn12 (single isomer, unassigned) [Compound 121BA, (9*R,18*S,*E)-3,4-dichloro-9-ethyl-12-hydroxy-18-phenyl-6,9-dihydro-18H-10,17-methanobenzo[b]pyrido[1,2-f][1]oxa[5,6,9]triazacyclotridecine-11,13-dione] | > 200 nM | 8.55
7 | CC[C@H]1/C=C/COc2c(ccc(Cl)c2Cl)[C@H](c2ccccc2)N2CN1C(=O)c1c(O)c(=O)ccn12 (single isomer, unassigned) [Compound 121BB, (9*S,18*S,*E)-3,4-dichloro-9-ethyl-12-hydroxy-18-phenyl-6,9-dihydro-18H-10,17-methanobenzo[b]pyrido[1,2-f][1]oxa[5,6,9]triazacyclotridecine-11,13-dione] | > 200 nM | 7.22
8 | CS(=O)(=O)c1ccccc1[C@@H]1c2cccc(F)c2OC/C=C\CN2CN1n1ccc(=O)c(O)c1C2=O (single isomer, unassigned) [Compound 122, (18*S,*Z)-4-fluoro-12-hydroxy-18-(2-(methylsulfonyl)phenyl)-6,9-dihydro-18H-10,17-methanobenzo[b]pyrido[1,2-f][1]oxa[5,6,9]triazacyclotridecine-11,13-dione] | > 200 nM | < 7.00
9 | CC(C)[C@H]1/C=C/COc2c(F)cccc2[C@@H](c2ccccc2)N2CN1C(=O)c1c(O)c(=O)ccn12 (single isomer, unassigned) [Compound 124AA, (9*S,18*R,*E)-4-fluoro-12-hydroxy-9-isopropyl-18-phenyl-6,9-dihydro-18H-10,17-methanobenzo[b]pyrido[1,2-f][1]oxa[5,6,9]triazacyclotridecine-11,13-dione] | > 200 nM | < 7.00
10 | CC(C)[C@@H]1/C=C/COc2c(F)cccc2[C@H](c2ccccc2)N2CN1C(=O)c1c(O)c(=O)ccn12 (single isomer, unassigned) [Compound 124BB, (9*R,18*S,*E)-4-fluoro-12-hydroxy-9-isopropyl-18-phenyl-6,9-dihydro-18H-10,17-methanobenzo[b]pyrido[1,2-f][1]oxa[5,6,9]triazacyclotridecine-11,13-dione] | > 200 nM | 8.28
11 | O=C1c2c(O)c(=O)ccn2N2CN1C[C@@H]1C[C@H]1COc1c(F)cccc1[C@H]2c1ccccc1 (single isomer, unassigned) [Compound 125AA, (1a*R,8*R,17a*R)-4-fluoro-14-hydroxy-8-phenyl-1a,2,17,17a-tetrahydro-1H,8H-9,16-methanobenzo[b]cyclopropa[k]pyrido[1,2-f][1]oxa[5,6,9]triazacyclotridecine-13,15-dione] | > 200 nM | 7.29
12 | O=C1c2c(O)c(=O)ccn2N2CN1C[C@H]1C[C@@H]1COc1c(F)cccc1[C@H]2c1ccccc1 (single isomer, unassigned) [Compound 125AB, (1a*R,8*S,17a*R)-4-fluoro-14-hydroxy-8-phenyl-1a,2,17,17a-tetrahydro-1H,8H-9,16-methanobenzo[b]cyclopropa[k]pyrido[1,2-f][1]oxa[5,6,9]triazacyclotridecine-13,15-dione] | > 200 nM | 7.62
13 | O=C1c2c(O)c(=O)ccn2N2CN1C[C@@H]1C[C@H]1COc1c(F)cccc1[C@@H]2c1ccccc1 (single isomer, unassigned) [Compound 125BA, (1a*S,8*R,17a*S)-4-fluoro-14-hydroxy-8-phenyl-1a,2,17,17a-tetrahydro-1H,8H-9,16-methanobenzo[b]cyclopropa[k]pyrido[1,2-f][1]oxa[5,6,9]triazacyclotridecine-13,15-dione] | > 200 nM | < 7.00
14 | O=C1c2c(O)c(=O)ccn2N2CN1C[C@H]1C[C@@H]1COc1c(F)cccc1[C@@H]2c1ccccc1 (single isomer, unassigned) [Compound 125BB, (1a*S,8*S,17a*S)-4-fluoro-14-hydroxy-8-phenyl-1a,2,17,17a-tetrahydro-1H,8H-9,16-methanobenzo[b]cyclopropa[k]pyrido[1,2-f][1]oxa[5,6,9]triazacyclotridecine-13,15-dione] | > 200 nM | < 7.00
15 | CC[C@H]1/C=C\COc2cc(F)c(F)c3c2[C@H](c2ccccc2SC3)N2CN1C(=O)c1c(O)c(=O)ccn12 (single isomer, unassigned) [Compound 126AA, (13*S,21a*R,Z)-13-ethyl-24,25-difluoro-16-hydroxy-6,10,13,21a-tetrahydro-7,8-(epiprop[1]en[1]yl[3]ylidene)-14,21-methanobenzo[6,7]thiepino[4,5-c]pyrido[1,2-f][1]oxa[5,6,9]triazacyclotridecine-15,17-dione] | > 200 nM | < 7.00
16 | CC[C@@H]1/C=C/COc2cc(F)c(F)c3c2[C@H](c2ccccc2SC3)N2CN1C(=O)c1c(O)c(=O)ccn12 (single isomer, unassigned) [Compound 126AB, (9*R,17a*R,E)-9-ethyl-24,25-difluoro-12-hydroxy-2,6,9,17a-tetrahydro-3,4-(epiprop[1]en[1]yl[3]ylidene)-10,17-methanobenzo[6,7]thiepino[4,5-c]pyrido[1,2-f][1]oxa[5,6,9]triazacyclotridecine-11,13-dione] | > 200 nM | < 7.00
17 | CC[C@H]1/C=C/COc2cc(F)c(F)c3c2[C@@H](c2ccccc2SC3)N2CN1C(=O)c1c(O)c(=O)ccn12 (single isomer, unassigned) [Compound 126BA, (9*S,17a*S,E)-9-ethyl-24,25-difluoro-12-hydroxy-2,6,9,17a-tetrahydro-3,4-(epiprop[1]en[1]yl[3]ylidene)-10,17-methanobenzo[6,7]thiepino[4,5-c]pyrido[1,2-f][1]oxa[5,6,9]triazacyclotridecine-11,13-dione] | > 50 nM | 9.64
18 | CC[C@@H]1/C=C\COc2cc(F)c(F)c3c2[C@@H](c2ccccc2SC3)N2CN1C(=O)c1c(O)c(=O)ccn12 (single isomer, unassigned) [Compound 126BB, (13*R,21a*S,Z)-13-ethyl-24,25-difluoro-16-hydroxy-6,10,13,21a-tetrahydro-7,8-(epiprop[1]en[1]yl[3]ylidene)-14,21-methanobenzo[6,7]thiepino[4,5-c]pyrido[1,2-f][1]oxa[5,6,9]triazacyclotridecine-15,17-dione] | > 200 nM | 9.00
19 | O=C1c2c(O)c(=O)ccn2N2CN1C[C@H]1C[C@@H]1COc1cc(F)c(F)c3c1[C@@H]2c1ccccc1SC3 (single isomer, unassigned) [Compound 127AA, (1a*S,11b*S,20a*S)-22,23-difluoro-17-hydroxy-1a,2,6,11b,20,20a-hexahydro-1H-5,4-(epiprop[1]en[1]yl[3]ylidene)-12,19-methanobenzo[6,7]thiepino[4,5-c]cyclopropa[k]pyrido[1,2-f][1]oxa[5,6,9]triazacyclotridecine-16,18-dione] | > 200 nM | 8.82
20 | O=C1c2c(O)c(=O)ccn2N2CN1C[C@H]1C[C@@H]1COc1cc(F)c(F)c3c1[C@H]2c1ccccc1SC3 (single isomer, unassigned) [Compound 127BA, (1a*S,11b*R,20a*S)-22,23-difluoro-17-hydroxy-1a,2,6,11b,20,20a-hexahydro-1H-5,4-(epiprop[1]en[1]yl[3]ylidene)-12,19-methanobenzo[6,7]thiepino[4,5-c]cyclopropa[k]pyrido[1,2-f][1]oxa[5,6,9]triazacyclotridecine-16,18-dione] | > 200 nM | 8.85
